# Measurements reported in US8106055B2, “Substituted amide compounds” (Gruenenthal GmbH, priority 2007, dated 2012).
# Molecular target: T1, human μ opiate receptor (Homo sapiens, UniProt P35372)
# T1 construct: purchased PerkinElmer Life Sciences, Zaventem, Belgium RB-HOM; host or cells: CHO-K1 cells (membrane preparation)
# Assay: Affinity for the human μ opiate receptor ([3H]-naloxone displacement, CHO-K1 receptor membrane preparation, SPA)
# Type: binding
# Conditions: 1.5 h, Table 2; test concentration 1 μM; read-out: μ receptor
# In short: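 Membranes from CHO-K1 cells expressing the human μ opiate receptor (15-40 μg protein per well) were incubated with test compound, 1 nmol/l [3H]-naloxone and WGA-SPA beads in 50 mmol/l Tris-HCl with 0.06% BSA for 90 minutes at room temperature. Values are % inhibition of specific binding at 1 μmol/l.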
# T1 sequence (P35372 whole entry): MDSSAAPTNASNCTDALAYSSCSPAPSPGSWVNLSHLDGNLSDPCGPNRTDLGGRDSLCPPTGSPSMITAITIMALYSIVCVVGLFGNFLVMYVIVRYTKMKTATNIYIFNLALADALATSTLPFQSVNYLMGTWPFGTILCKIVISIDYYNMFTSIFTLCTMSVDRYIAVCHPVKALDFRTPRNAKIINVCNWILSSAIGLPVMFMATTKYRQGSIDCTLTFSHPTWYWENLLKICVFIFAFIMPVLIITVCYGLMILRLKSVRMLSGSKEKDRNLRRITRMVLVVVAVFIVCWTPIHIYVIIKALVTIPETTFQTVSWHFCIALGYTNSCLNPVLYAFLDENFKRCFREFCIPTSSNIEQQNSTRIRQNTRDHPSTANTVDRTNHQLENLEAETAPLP
row,SMILES,inhibition at 1 µM [%]
1,"CN(C)C(c1ccccc1)C1CCC(NC(=O)COCCN(C)S(=O)(=O)c2c(Cl)cc(Cl)cc2Cl)C1 (stereo not shown) [Example 615, N-[3-(dimethylaminophenylmethyl)-cyclopentyl]-2-{2-[(2,4,6-trichlorobenzenesulfonyl)-methylamino]-ethoxy}-acetamide]",89
2,"CN(C)C(c1ccccc1)C1CCC(NC(=O)COCC2CCCN2S(=O)(=O)c2c(Cl)cc(Cl)cc2Cl)CC1 (stereo not shown) [Example 611, N-[4-(Dimethylaminophenylmethyl)-cyclohexyl]-2-[1-(2,4,6-trichlorobenzenesulfonyl)-pyrrolidin-2-ylmethoxy]-acetamide]",93
3,"CN(C)C(c1ccccc1)C1CCC(CNC(=O)COCCN(C)S(=O)(=O)c2c(Cl)cc(Cl)cc2Cl)CC1 (stereo not shown) [Example 614, N-[4-(dimethylaminophenylmethyl)-cyclohexylmethyl]-2-{2-[(2,4,6-trichlorobenzenesulfonyl)-methylamino]-ethoxy}-acetamide]",96

# Same assay, conditions: Table 2; test concentration 1 μM
row,SMILES,μ receptor [% inhibition]
1,"CN(C)C(c1ccccc1)C1CCC(NC(=O)COCC2CCCN2S(=O)(=O)c2c(Cl)cc(Cl)cc2Cl)CC1 (stereo not shown) [Example 612, N-[4-(Dimethylaminophenylmethyl)-cyclohexyl]-2-[1-(2,4,6-trichlorobenzenesulfonyl)-pyrrolidin-2-ylmethoxy]-acetamide]",88

# Same assay, conditions: test concentration of 1 μM
row,SMILES,"μ (binding on the μ opioid receptor, % inhibition) [%]"
1,CN(C)C(c1ccc(Cl)cc1)C1CCC(CCNC(=O)COCCN(C)S(=O)(=O)c2ccc(F)cc2)CC1 (stereo not shown) [Example 241],67
2,CN(C)C(c1cccc(F)c1)C1CCC(NC(=O)COC2CCCN(S(=O)(=O)c3ccccc3)C2)CC1 (stereo not shown) [Example 277],68
3,CCN(CCOCC(=O)NCCC1CCC(C(c2cccc(F)c2)N(C)C)CC1)S(=O)(=O)c1c(C)cc(OC)c(C)c1C (stereo not shown) [Example 209],85
4,COc1ccc(S(=O)(=O)N2CCCCC2CCOCC(=O)NCC2CCC(C(c3cccc(F)c3)N(C)C)CC2)cc1 (stereo not shown) [Example 203],83
5,COc1cc(C)c(S(=O)(=O)N(C)CCOCC(=O)NC2CCC(C(c3cccc(F)c3)N(C)C)CC2)c(C)c1 (stereo not shown) [Example 228],76
6,Cc1cc(C)c(S(=O)(=O)N(C)CCOCC(=O)NC2CCC(C(c3cccs3)N(C)C)CC2)c(C)c1 (stereo not shown) [Example 235],76
7,COc1cc(C)c(S(=O)(=O)N(CCOCC(=O)NCC2CCC(C(c3ccccc3)N(C)C)CC2)Cc2ccccc2)c(C)c1C (stereo not shown) [Example 201],88
8,CN(C)C(c1cccc(F)c1)C1CCC(CNC(=O)COC2CCN(S(=O)(=O)c3ccc(Cl)cc3)C2)CC1 (stereo not shown) [Example 258],80
9,CN(C)C(c1cccc(F)c1)C1CCC(NC(=O)COCC2CCCN2S(=O)(=O)c2ccc(Cl)c(Cl)c2)CC1 (stereo not shown) [Example 211],83
10,CN(C)C(c1cccc(F)c1)C1CCC(CCNC(=O)COC2CCN(S(=O)(=O)c3ccc(Cl)cc3Cl)C2)CC1 (stereo not shown) [Example 259],83
11,CN(C)C(c1cccc(F)c1)C1CCC(CNC(=O)COC2CCN(S(=O)(=O)c3ccc(Cl)cc3Cl)C2)CC1 (stereo not shown) [Example 225],83
12,Cc1ccc(S(=O)(=O)N2CCC(OCC(=O)NCCC3CCC(C(c4cccs4)N(C)C)CC3)C2)cc1 (stereo not shown) [Example 272],73
13,COc1cc(C)c(S(=O)(=O)N2CCCC(OCC(=O)NCCC3CCC(C(c4cccc(F)c4)N(C)C)CC3)C2)c(C)c1C (stereo not shown) [Example 221],82
14,Cc1ccc(S(=O)(=O)N(C)CCOCC(=O)NCC2CCC(C(c3cccc(F)c3)N(C)C)CC2)cc1 (stereo not shown) [Example 227],77
15,COc1cc(C)c(S(=O)(=O)N2CCC(OCC(=O)NCCC3CCC(C(c4cccc(F)c4)N(C)C)CC3)CC2)c(C)c1C (stereo not shown) [Example 232],78
16,CN(C)C(c1cccs1)C1CCC(CCNC(=O)COC2CCCCC2N(C)S(=O)(=O)c2ccc(Cl)c(Cl)c2)CC1 (stereo not shown) [Example 214],85
17,CCN(CCOCC(=O)NCC1CCC(C(c2ccccc2)N(C)C)CC1)S(=O)(=O)c1c(C)cc(OC)c(C)c1C (stereo not shown) [Example 231],82
18,CN(C)C(c1cccs1)C1CCC(CNC(=O)COC2CCN(S(=O)(=O)c3ccccc3)CC2)CC1 (stereo not shown) [Example 276],78
19,COc1ccc(S(=O)(=O)N2CCCC2COCC(=O)NC2CCC(C(c3cccc(F)c3)N(C)C)CC2)cc1 (stereo not shown) [Example 268],70
20,COc1cc(C)c(S(=O)(=O)N(C)CCOCC(=O)NC2CCC(C(c3ccccc3)N(C)C)CC2)c(C)c1 (stereo not shown) [Example 239],38
21,Cc1cc(C)c(S(=O)(=O)N2CCC(OCC(=O)NCCC3CCC(C(c4cccc(F)c4)N(C)C)CC3)C2)c(C)c1 (stereo not shown) [Example 264],77
22,CN(C)C(c1cccc(F)c1)C1CCC(NC(=O)COC2CCN(S(=O)(=O)c3ccc(Cl)cc3)C2)CC1 (stereo not shown) [Example 204],81
23,CN(C)C(c1cccc(F)c1)C1CCC(NC(=O)COCCN(C)S(=O)(=O)c2c(Cl)cc(Cl)cc2Cl)CC1 (stereo not shown) [Example 208],79
24,COc1ccc(S(=O)(=O)N(C)CCOCC(=O)NC2CCC(C(c3cccc(F)c3)N(C)C)CC2)cc1 (stereo not shown) [Example 250],70

row,SMILES,"μ (binding on the μ opioid receptor, % inhibition) [%]"
1,CN(C)C(c1cccc(F)c1)C1CCC(NC(=O)COCCN(C)S(=O)(=O)c2ccc(OC(F)(F)F)cc2)CC1 (stereo not shown) [Example 246],76
2,CN(C)C(c1ccc(F)cc1)C1CCC(CNC(=O)COCCN(C)S(=O)(=O)c2ccc(Cl)cc2Cl)CC1 (stereo not shown) [Example 249],70
3,COc1cc(C)c(S(=O)(=O)N(CCOCC(=O)NCCC2CCC(C(c3cccs3)N(C)C)CC2)Cc2ccccc2)c(C)c1C (stereo not shown) [Example 254],83
4,COc1cc(C)c(S(=O)(=O)N2CCN(CCOCC(=O)NC3CCC(C(c4ccc(F)cc4)N(C)C)CC3)CC2)c(C)c1C (stereo not shown) [Example 222],77
5,COc1ccc(S(=O)(=O)N2CCCCC2COCC(=O)NC2CCC(C(c3cccc(F)c3)N(C)C)CC2)cc1 (stereo not shown) [Example 255],72
6,CN(C)C(c1cccc(F)c1)C1CCC(NC(=O)COCCN(C)S(=O)(=O)c2ccc(Cl)cc2Cl)CC1 (stereo not shown) [Example 217],89
7,COc1ccc(S(=O)(=O)N2CCCC2COCC(=O)NCCC2CCC(C(c3cccc(F)c3)N(C)C)CC2)cc1 (stereo not shown) [Example 224],85
8,CN(C)C(c1ccccc1)C1CCC(CNC(=O)COC2CCN(S(=O)(=O)c3ccc(F)cc3)C2)CC1 (stereo not shown) [Example 219],82
9,COc1ccc(S(=O)(=O)N2CCCCC2COCC(=O)NC2CCC(C(c3cccs3)N(C)C)CC2)cc1OC (stereo not shown) [Example 261],72
10,COc1ccc(S(=O)(=O)N2CCCCC2CCOCC(=O)NC2CCC(C(c3ccc(F)cc3)N(C)C)CC2)cc1 (stereo not shown) [Example 212],80
11,COc1ccc(S(=O)(=O)N2Cc3ccccc3CC2COCC(=O)NC2CCC(C(c3ccc(F)cc3)N(C)C)CC2)cc1 (stereo not shown) [Example 234],76
12,COc1cc(C)c(S(=O)(=O)N2CCC(OCC(=O)NCC3CCC(C(c4cccc(F)c4)N(C)C)CC3)C2)c(C)c1 (stereo not shown) [Example 265],79
13,CN(C)C(c1cccc(F)c1)C1CCC(CNC(=O)COC2CCN(S(=O)(=O)c3ccc(F)cc3)C2)CC1 (stereo not shown) [Example 275],71
14,COc1cc(C)c(S(=O)(=O)N2CCC(OCC(=O)NCC3CCC(C(c4cccc(F)c4)N(C)C)CC3)C2)c(C)c1C (stereo not shown) [Example 252],82
15,COc1ccc(S(=O)(=O)N(C)CCOCC(=O)NC2CCC(C(c3cccs3)N(C)C)CC2)cc1OC (stereo not shown) [Example 206],78
16,CN(C)C(c1cccs1)C1CCC(CCNC(=O)COC2CCN(S(=O)(=O)c3ccccc3)CC2)CC1 (stereo not shown) [Example 230],82
17,CN(C)C(c1ccc(Cl)cc1)C1CCC(CNC(=O)COCCN(C)S(=O)(=O)c2ccc(F)cc2)CC1 (stereo not shown) [Example 263],72
18,CN(C)C(c1cccc(F)c1)C1CCC(CCNC(=O)COCCN(C)S(=O)(=O)c2ccc(F)cc2)CC1 (stereo not shown) [Example 218],82
19,"CN(C)C(c1ccccc1)C1CCC(CNC(=O)COCC2CCCN(S(=O)(=O)c3ccccc3)C2)CC1 (stereo not shown) [Example 129, N((4((dimethylamino)(phenyl)methyl)cyclohexyl)methyl)-2-((1-(phenylsulfonyl)piperidin-3-yl)methoxy)acetamide]",89
20,CN(C)C(c1cccc(F)c1)C1CCC(NC(=O)COC2CCN(S(=O)(=O)c3ccccc3)C2)CC1 (stereo not shown) [Example 271],72
21,COc1cc(C)c(S(=O)(=O)N2CCN(CCOCC(=O)NCC3CCC(C(c4cccc(F)c4)N(C)C)CC3)CC2)c(C)c1C (stereo not shown) [Example 223],77
22,CN(C)C(c1cccc(F)c1)C1CCC(NC(=O)COCCN(C)S(=O)(=O)c2ccc(F)cc2)CC1 (stereo not shown) [Example 205],76
23,CN(C)C(c1ccc(Cl)cc1)C1CCC(CNC(=O)COC2CCCCC2N(C)S(=O)(=O)c2ccc(Cl)c(Cl)c2)CC1 (stereo not shown) [Example 269],74
24,CN(C)C(c1cccc(F)c1)C1CCC(CCNC(=O)COCC2CCCN2S(=O)(=O)c2ccc(Cl)c(Cl)c2)CC1 (stereo not shown) [Example 202],85
